The values that follow come from patent US20110028715A1, “NOVEL ADENINE COMPOUND” (priority 2007, published 2011).

Read-outs that look alike come from different tables or passages of the source. Marks after values point to notes of the source that are not given here.

A word on the EC50: it is the concentration at which the effect is half-maximal.

One test deals with T1, human TLR7 (Homo sapiens, UniProt Q9NYK1).
T1 construct: expressed in transfected cells; host or cells: HEK 293 (hTLR7/seap-293)
T1 sequence (Q9NYK1 27-1049): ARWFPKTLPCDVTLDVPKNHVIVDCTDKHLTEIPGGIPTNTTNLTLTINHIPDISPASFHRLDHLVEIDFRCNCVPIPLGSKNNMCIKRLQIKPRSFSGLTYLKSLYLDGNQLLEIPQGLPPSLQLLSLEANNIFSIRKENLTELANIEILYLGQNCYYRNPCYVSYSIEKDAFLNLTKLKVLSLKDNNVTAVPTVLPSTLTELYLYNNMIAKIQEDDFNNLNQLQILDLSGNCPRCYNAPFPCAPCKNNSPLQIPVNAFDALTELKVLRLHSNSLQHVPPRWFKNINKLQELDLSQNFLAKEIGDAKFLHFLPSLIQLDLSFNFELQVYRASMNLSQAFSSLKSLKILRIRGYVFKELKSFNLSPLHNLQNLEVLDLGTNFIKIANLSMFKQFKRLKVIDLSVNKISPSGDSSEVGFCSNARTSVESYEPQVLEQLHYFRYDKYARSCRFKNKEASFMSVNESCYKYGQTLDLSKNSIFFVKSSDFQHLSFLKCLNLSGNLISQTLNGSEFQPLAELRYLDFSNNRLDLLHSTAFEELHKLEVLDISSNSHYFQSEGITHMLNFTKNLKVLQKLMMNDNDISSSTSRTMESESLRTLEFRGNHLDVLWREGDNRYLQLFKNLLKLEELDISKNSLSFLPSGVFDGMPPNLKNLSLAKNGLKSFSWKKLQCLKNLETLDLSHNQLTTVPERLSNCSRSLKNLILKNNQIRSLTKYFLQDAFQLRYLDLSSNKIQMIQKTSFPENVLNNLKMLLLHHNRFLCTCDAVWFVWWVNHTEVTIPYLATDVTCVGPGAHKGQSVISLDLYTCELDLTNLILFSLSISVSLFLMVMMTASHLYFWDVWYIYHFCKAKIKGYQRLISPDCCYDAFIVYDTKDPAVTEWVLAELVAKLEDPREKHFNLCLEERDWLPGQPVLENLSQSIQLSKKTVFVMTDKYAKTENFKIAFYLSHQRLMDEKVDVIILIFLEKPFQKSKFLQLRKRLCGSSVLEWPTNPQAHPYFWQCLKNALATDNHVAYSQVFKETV
Kind of test: Human TLR7 reporter assay (NF-kB-SEAP, HEK 293 cells). To be noted: read-out: human TLR7 binding activity EC50. The format is cell-based. The method, then: HEK 293 cells, to which human TLR7 or rat TLR7 plasmid and reporter plasmid (NF-kB-SEAP) were stably introduced, were suspended in DMEM medium (10% FBS, 1% NEAA, 10 ug/mL blastocidin S HCl, 100 ug/mL Zeocin), and seeded into a 96-well plate in an amount of 90 μl/well (hTLR7/seap-293: 20,000 cells/well, rTLR7/seap-293: 25,000 cells/well).
A test compound (DMSO stock solution (2 μl) was diluted into 100-fold with the medium (200 μl)) was added into the cells seeded in the 96-well plate in an amount of 10 μl/well (final concentration: 1 nM to 10 μM, common ratio: 3). The side of the plate was lightly patted for stiffing the content of the plate, and the plate was incubated for 20 hours in a CO2 incubator. To the cells that were stimulated with a test compound was added a substrate for reporter assay (substrate for SEAP, pNPP) in an amount of 50 μl/well. The minute later after the addition of the substrate, the solution for reaction quenching (4N NaOH) was added to the plate in an amount of ? 50 μl/well in order to quench the enzyme reaction. A top seal A was applied to the plate, and the absorbance at 405 nm was measured by a microplate reader.
In a similar manner to Example 85, the following compounds were tested.
On the technique in general: Reporter assays use an easily measured gene product as a stand-in for the process of interest.

In the next test the test system is IFN-α. As to the kind of experiment: IFN-α production inducing activity in mice (plasma IFN-α by L929/2-5AS-Luc bioassay). The format is in vivo, B6C3F1 mice. The following applies: 3 hours after 1 mg/kg intravenously via tail vein, mean ± standard deviation (n = 3). The method, then: A test compound was administered to B6C3F1 mice (Charles River Japan, Inc.) via tail vein at the dose of 1 mg/kg intravenously. After 3 hours, total blood was collected into a sample tube containing heparin. Plasma was prepared from total blood after centrifugation (3,000 rpm, 10 min, at room temperature) and stored at −20° C.
Murine fibroblasts (L929/2-5AS-Luc), which constitutively expressed luciferase gene in which the promoter region for 2′-5′-oligoadenylate synthase was cloned, was seeded into 96-well plate at 4×10^4 cells/well, and cultured for overnight with diluted plasma or mouse IFN-α. After Luclite (Perkin Elmer) was added to the plate, the luciferase activity was measured with TopCount (Perkin Elmer).
The concentration of IFN-α in plasma was calculated by linear regression of logarithmic transformed concentration of mouse IFN-α and the luciferase activity.

[1] abbreviates: Table 1, HEK 293 hTLR7/NF-kB-SEAP reporter, 20 hours incubation.
Setting [2] is: Table 6, tested in a similar manner to Example 85.

Take `CCCCNc1nc(N)c2[nH]c(=O)n(Cc3cnc(OCCN(C)C)c(Cl)c3)c2n1` [Example 58, 6-Amino-2-butylamino-9-[5-chloro-6-(2-dimethylaminoethoxy)pyridin-3-ylmethyl]-7,9-dihydropurin-8-one]: the EC50 on human TLR7 (setting [1]) is 3.7 nM. Consider `CCCCNc1nc(N)c2[nH]c(=O)n(Cc3ccc(OCCCN(C)C)nc3)c2n1` [Example 116, 6-Amino-2-butylamino-9-[6-(3-dimethylaminopropoxy)pyridin-3-ylmethyl]-7,9-dihydropurin-8-one], for which the EC50 at human TLR7 (setting [2]) came out at 19.6 nM.

As to `CCCCNc1nc(N)c2[nH]c(=O)n(Cc3cnc(N4CCN(C)CC4)c(Cl)c3)c2n1` [Example 56, 6-Amino-2-butylamino-9-[5-chloro-6-(4-methylpiperazin-1-yl)pyridin-3-ylmethyl]-7,9-dihydropurin-8-one], the EC50 at human TLR7 (setting [1]) turned out to be 1.3 nM. Still for that read-out and setting: in the case of `CCCCNc1nc(N)c2[nH]c(=O)n(Cc3ccc(CN4CCCCC4)cc3)c2n1` [Example 29, 6-Amino-2-butylamino-9-(4-piperidin-1-ylmethylbenzyl)-7,9-dihydropurin-8-one] it was 7.6 nM.

With `COCCOc1nc(N)c2[nH]c(=O)n(Cc3cnc(OC4CCN(C)CC4)c(Cl)c3)c2n1` [Example 123, 6-Amino-9-[5-chloro-6-(1-methylpiperidin-4-yloxy)pyridin-3-ylmethyl]-2-(2-methoxyethoxy)-7,9-dihydropurin-8-one], at human TLR7 (setting [2]), the EC50 worked out at 6.9 nM. With `CCOc1nc(N)c2[nH]c(=O)n(Cc3ccc(CN4CCOCC4)cc3)c2n1` [Example 68, 6-Amino-2-ethoxy-9-(4-morpholin-4-ylmethylbenzyl)-7,9-dihydropurin-8-one], the EC50 on human TLR7 (setting [1]) came to 5.5 nM. On to `CCCCOc1nc(N)c2nc(O)n(Cc3ccc(CN4CCOCC4)cc3)c2n1` [Example 1, 6-Amino-2-butoxy-9-(4-morpholin-4-ylmethylbenzyl)-7,9-dihydropurin-8-one], for which, at human TLR7 (setting [1]), the EC50 came out at 7.2 nM.

As to `CCCCOc1nc(N)c2[nH]c(=O)n(Cc3ccc(OCCCN(C)C)cc3)c2n1` [Example 37, 6-Amino-2-butoxy-9-[4-(3-dimethylaminopropoxy)benzyl]-7,9-dihydropurin-8-one], the EC50 at human TLR7 (setting [1]) stood at 1.1 nM. Still for that read-out and setting: in the case of `Nc1nc(OCCCC(F)(F)F)nc2c1[nH]c(=O)n2Cc1ccc(CN2CCOCC2)cc1` [Example 23, 6-Amino-9-(4-morpholin-4-ylmethylbenzyl)-2-(4,4,4-trifluorobutoxy)-7,9-dihydropurin-8-one] it was 14.8 nM.

With `COCCOc1nc(N)c2[nH]c(=O)n(Cc3ccc(N4CCN(C)CC4)nc3)c2n1` [Example 42, 6-Amino-2-(2-methoxyethoxy)-9-[6-(4-methylpiperazin-1-yl)pyridin-3-ylmethyl]-7,9-dihydropurin-8-one], the “Mouse IFN-α” value with IFN-α came out at 30.0 ± 7.3 IU/mL. Still for that read-out and setting: then `CCCCNc1nc(N)c2[nH]c(=O)n(Cc3ccc(OCCN(C)C)nc3)c2n1` [Example 54, 6-Amino-2-butylamino-9-[6-(2-dimethylaminoethoxy)pyridin-3-ylmethyl]-7,9-dihydropurin-8-one], with 53.6 ± 6.5^a) IU/mL. In the case of `COCCOc1nc(N)c2[nH]c(=O)n(Cc3ccc(OCC(C)(C)CN(C)C)nc3)c2n1` [Example 110, 6-Amino-9-[6-(3-dimethylamino-2,2-dimethylpropoxy)pyridin-3-ylmethyl]-2-(2-methoxyethoxy)-7,9-dihydropurin-8-one], the EC50 at human TLR7 (setting [2]) came out at 16.5 nM. Same read-out and setting: then `COCCOc1nc(N)c2[nH]c(=O)n(Cc3cnc(OCC(C)(C)CN(C)C)c(Cl)c3)c2n1` [Example 120, 6-Amino-9-[5-chloro-6-(3-dimethylamino-2,2-dimethylpropoxy)pyridin-3-ylmethyl]-2-(2-methoxyethoxy)-7,9-dihydropurin-8-one], with 3.7 nM; and `COCCOc1nc(N)c2[nH]c(=O)n(Cc3cnc(OCCN(C)C)c(Cl)c3)c2n1` [Example 118, 6-Amino-9-[5-chloro-6-(2-dimethylaminoethoxy)pyridin-3-ylmethyl]-2-(2-methoxyethoxy)-7,9-dihydropurin-8-one], with 14 nM.

As for `CCCCOc1nc(N)c2[nH]c(=O)n(Cc3ccc(CN4CCC(N(C)C)CC4)cc3)c2n1` [Example 4, 6-Amino-2-butoxy-9-[4-(4-dimethylaminopiperidin-1-ylmethyl)benzyl]-7,9-dihydropurin-8-one], the EC50 on human TLR7 (setting [1]) turned out to be 2.5 nM. On the same count and under the same terms, then `CCCCOc1nc(N)c2[nH]c(=O)n(Cc3ccc(CN4CCCCC4)cc3)c2n1` [Example 2, 6-Amino-2-butoxy-9-(4-piperidin-1-ylmethylbenzyl)-7,9-dihydropurin-8-one], with 0.9 nM; and `COCCOc1nc(N)c2[nH]c(=O)n(Cc3ccc(CN4CCC(Oc5ccccc5)CC4)cc3)c2n1` [Example 13, 6-Amino-2-(2-methoxyethoxy)-9-[4-(4-phenoxypiperidin-1-ylmethyl)benzyl]-7,9-dihydropurin-8-one], with 18.7 nM. In the case of `COCCOc1nc(N)c2[nH]c(=O)n(Cc3cnc(N4CCN(C)CC4)c(Cl)c3)c2n1` [Example 105, 6-Amino-9-[5-chloro-6-(4-methylpiperazin-1-yl)pyridin-3-ylmethyl]-2-(2-methoxyethoxy)-7,9-dihydropurin-8-one], at human TLR7 (setting [2]), the EC50 came to 3.3 nM. In the case of `CCCCOc1nc(N)c2[nH]c(=O)n(Cc3ccc(CN4CCN(C)CC4)cc3)c2n1` [Example 3, 6-Amino-2-butoxy-9-[4-(4-methylpiperazin-1-ylmethyl)benzyl]-7,9-dihydropurin-8-one], the EC50 at human TLR7 (setting [1]) came to 1.8 nM. On to `CCCCOc1nc(N)c2[nH]c(=O)n(Cc3ccc(CN4CCC(N(C)C)C4)cc3)c2n1` (centres unmarked) [Example 5, 6-Amino-2-butoxy-9-[4-(3-dimethylaminopyrrolidin-1-ylmethyl)benzyl]-7,9-dihydropurin-8-one], for which the EC50 on human TLR7 (setting [1]) turned out to be 2.7 nM. In the case of `CCCCOc1nc(N)c2[nH]c(=O)n(Cc3ccc(N(C)CCN(C)C)nc3)c2n1` [Example 104, 6-Amino-2-butoxy-9-{6-[(2-dimethylaminoethyl)methylamino]pyridin-3-ylmethyl}-7,9-dihydropurin-8-one], the concentration for a half-maximal effect (EC50) at human TLR7 (setting [2]) is 5.3 nM. Consider `COCCOc1nc(N)c2[nH]c(=O)n(Cc3ccc(CN4CCCCC4)cc3)c2n1` [Example 10, 6-Amino-2-(2-methoxyethoxy)-9-(4-piperidin-1-ylmethylbenzyl)-7,9-dihydropurin-8-one], for which, in the test with IFN-α, the “Mouse IFN-α” value amounted to 7.3 ± 1.6 IU/mL.

Take `CCCCOc1nc(N)c2[nH]c(=O)n(Cc3ccc(CN4CCN(C(=O)CN(C)C)CC4)cc3)c2n1` [Example 94, 6-Amino-2-butoxy-9-{4-[4-(2-dimethylaminoacetyl)piperazin-1-ylmethyl]benzyl}-7,9-dihydropurin-8-one]: the EC50 at human TLR7 (setting [2]) was 2.5 nM.
